Source: US10597398B2, “Suppression and regeneration promoting effect of low molecular weight compound on cancer and fibrosis” (NATIONAL UNIVERSITY CORPORATION TOTTORI UNIVERSITY, priority 2015, dated 2020)

Test system: Wnt/β-catenin signaling
Assay: Inhibitory effect on Wnt/β-catenin signaling in liver cancer cells (HuH7-TCF4 luciferase)
Assay type: cell-based, human
Conditions: concentration equal to or lower than that of IC-2
Procedure, shortened: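 HuH-7 cells stably carrying a 3×TCF4-motif firefly luciferase reporter, treated 48 h at 37 °C with compounds at concentrations reducing HuH-7 growth to about 50% or less (n=3). Firefly luciferase luminescence read from lysates; 0.1% DMSO solvent control, 0.5 μM 5-FU control; Student's t-test.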

## COc1ccc(COc2ccc(CNC(=O)N3CCC(=O)N4C(Cc5ccccc5)C(=O)N(Cc5cccc6ccccc56)CC34)cc2)cc1 (stereo not shown) [IC-2-OPMB]
  inhibitory effect on Wnt/β-catenin signaling pathway in liver cancer cells compared with IC-2: more potent inhibitory effect
